Laboratory results from PMC7556730 (Chemico-biological interactions, 2020).
Several values for one entry are separate records, joined by “and”; a condition that tells them apart may be missing. Equal values may be shown once. Marks after values point to notes of the source that are not given here. Each block holds one compound with its values, some of them ahead of it.

What was measured:
microsomal CESs = assay: Microsomal inhibition study with the CES inhibitor benzil; format: in vitro ADME, Sprague Dawley rats
[1] = cited from earlier work
[2] = system: microsomal carboxylesterases (CESs) in rat liver microsomes; assay: Incubations of active microsomes without NADPH; format: in vitro ADME, Sprague Dawley rats
[3] = system: microsomal carboxylesterases (CESs); assay: Incubations of active microsomes without NADPH; format: in vitro ADME, Sprague Dawley rats; conditions: male, Sprague-Dawley, rat, liver microsomes
[4] = system: glutathione S-transferases (GSTs) in rat liver cytosol; assay: Cytosolic incubations with benoxacor in the presence of GSH; format: in vitro ADME, Sprague Dawley rats; conditions: for percentage of benoxacor remaining: 1 mg/mL protein, 5 mM GSH, 5 μM benoxacor
[5] = system: glutathione S-transferases (GSTs); assay: as above; format: in vitro ADME, Sprague Dawley rats; conditions: Sprague-Dawley, rat, liver cytosol
[6] = system: cytochrome P450 enzymes (CYPs); assay: Microsomal incubations with benoxacor in the presence of NADPH; format: in vitro ADME, Sprague Dawley rats; conditions: Sprague-Dawley, rat, liver microsomes
[7] = system: hepatic cytochrome P450 enzymes (CYPs) in rat liver microsomes; assay: as above; format: in vitro ADME, Sprague Dawley rats; conditions: for percentage of benoxacor remaining: 0.1 mg/mL protein, 0.5 mM NADPH, 5 μM benoxacor
cytosolic GSTs = assay: Cytosolic inhibition study with the GST inhibitor ethacrynic acid; format: in vitro ADME, Sprague Dawley rats; conditions: for benoxacor depletion in control incubations: ethacrynic acid controls; for percent of benoxacor remaining: 5 minutes

benoxacor depletion in control incubations (microsomal CESs; benzil controls, 5, 50 and 500 nM): 100±1%
depletion of benoxacor in the presence of benzil (microsomal CESs; male rat liver microsomes without NADPH, 30 minutes, benzil 5 to 500 nM): not depleted
percent of benoxacor remaining (microsomal CESs; male rat liver microsomes without NADPH, 30 minutes, without benzil): 92±2%
enantiomeric fraction (EF) ([2]; active female rat microsomes without NADPH, 30 minutes): 0.47
enantiomeric fraction (EF) ([2]; active female rat microsomes without NADPH, initial value): 0.48
enantiomeric fraction (EF) ([2]; active male rat microsomes without NADPH, initial value): 0.48
CES Scaled CLint ([2]; male rat): 6.74 mL/min/g liver
microsomal CLint [3]: 150 µL/min/mg
enantiomeric fraction (EF) ([4]; female rat liver cytosol with GSH, 30 minutes): 0.54±0.01
enantiomeric fraction (EF) ([4]; female rat liver cytosol with GSH, start of 30-minute time-course): 0.48
percentage of benoxacor remaining ([4]; female rat liver cytosol, 30 minutes): 18±2%
GST Scaled CLint ([4]; female rat, significantly different from male (p = 0.0038)): 25.87^a mL/min/g liver
GST Scaled CLint ([4]; male rat): 40.18 mL/min/g liver
enantiomeric fraction (EF) ([4]; male rat liver cytosol with GSH, 30 minutes): 0.43±0.01 and 0.43
enantiomeric fraction (EF) ([4]; male rat liver cytosol with GSH, start of 30-minute time-course): 0.47
percentage of benoxacor remaining ([4]; male rat liver cytosol, 30 minutes): 9±2%
microsomal CLint ([5]; female): 280 µL/min/mg
microsomal CLint ([5]; male): 440 µL/min/mg
microsomal CLint ([6]; female): 1280 µL/min/mg
microsomal CLint ([6]; male): 1110 µL/min/mg
CYP Scaled CLint ([7]; female rat): 57.80 mL/min/g liver
enantiomeric fraction (EF = A1/(A1+A2)) ([7]; female rat liver microsomes with NADPH, 30 minutes): 0.67±0.01 and 0.67
enantiomeric fraction (EF = A1/(A1+A2)) ([7]; female rat liver microsomes with NADPH, start of 30-minute time-course): 0.48
percentage of benoxacor remaining ([7]; female rat liver microsomes, 30 minutes): 48±1%
CYP Scaled CLint ([7]; male rat): 50.13 mL/min/g liver
enantiomeric fraction (EF = A1/(A1+A2)) ([7]; male rat liver microsomes with NADPH, 30 minutes): 0.60±0.01 and 0.60
enantiomeric fraction (EF = A1/(A1+A2)) ([7]; male rat liver microsomes with NADPH, start of 30-minute time-course): 0.48
percentage of benoxacor remaining ([7]; male rat liver microsomes, 30 minutes): 45±1%
benoxacor depletion in control incubations (cytosolic GSTs; 10 μM): 100±1%
benoxacor depletion in control incubations (cytosolic GSTs; 100 μM): 102±1%
benoxacor depletion in control incubations (cytosolic GSTs; 1000 μM): 100±1%
percent of benoxacor remaining (cytosolic GSTs; female rat cytosol with GSH, 1000 μM ethacrynic acid): 98±2%
percent of benoxacor remaining (cytosolic GSTs; female rat cytosol with GSH, without inhibitor): 71±3%
percent of benoxacor remaining (cytosolic GSTs; male rat preparations with GSH, with ethacrynic acid): 96±2%
percent of benoxacor remaining (cytosolic GSTs; male rat preparations with GSH, without inhibitor): 64±1%
SMILES: CC1COc2ccccc2N1C(=O)C(Cl)Cl (stereo not shown) [benoxacor, Benoxacor]
experimental solubility [1]: 22 ± 1.7 µg/mL

SMILES: O=C(C(=O)c1ccccc1)c1ccccc1 [benzil, Benzil, reference compound]
inhibition of the loss of benoxacor by the CES inhibitor (microsomal CESs; male rat liver microsomes without NADPH, 30 minutes, 5, 50, 500 nM): significantly inhibited
